# Data published in PMC8597757, “Pharmacokinetic and Safety Profile of the Novel HIV Nonnucleoside Reverse Transcriptase Inhibitor MK-8507 in Adults without HIV” (Antimicrobial Agents and Chemotherapy, 2021).
# “Also recorded” adds a separate entry of the source. Where two headings read alike, the source gives them in different places.
# Columns and labels:
# [1] = Single-dose plasma pharmacokinetics of MK-8507 (suspension, study 1; tablet, study 2); type: in vivo; details: human, fasted; for AUC(0-inf): n=6, read-out: AUC0-∞ (geometric mean [95% CI]); for AUC(0-t): n=6, read-out: AUC0–168 (geometric mean [95% CI]); for half-life: n=6, read-out: Apparent terminal t½ (geometric mean [%GVC]) (converted); for concentration at 168 h: n=6, read-out: C168hr (geometric mean [95% CI]); for Cmax: n=6, read-out: Cmax (geometric mean [95% CI])
# [2] = tested on: common NNRTI resistance-associated variants; details: cited from earlier work
# [3] = Single-dose plasma pharmacokinetics of MK-8507 (suspension, study 1; tablet, study 2); type: in vivo; details: human; for Cmax: n=6, read-out: Cmax (geometric mean [95% CI]); for AUC(0-t): n=6, read-out: AUC0–168 (geometric mean [95% CI]); for concentration at 168 h: n=6, read-out: C168hr (geometric mean [95% CI])
# Experimental: Study 1 was a 4-period, alternating panel (A and B), rising single-dose trial. Participants in each panel were randomized to receive single rising doses of MK-8507 (n = 6 per panel) or placebo (n = 2 per panel) as an oral suspension. All study drugs were administered after an overnight fast, except in period 4. […] There was a minimum 20-day washout interval between doses within each panel and a 10-day interval between each dosing period. […] MK-8507 in plasma was extracted by protein precipitation and analyzed by reversed-phase chromatographic separation coupled with tandem mass spectrometric detection by Merck & Co., Inc. (West Point, PA, USA). The liquid chromatography-tandem mass spectrometric (LC-MS/MS) system consisted of a Waters Acquity ultraperformance liquid chromatography system (Waters Corporation, Milford, MA, USA) employing a turbo ionspray interface in the negative ion mode. The lower limit of quantitation was 1.0 ng/mL (2.03 nM) with a linear calibration range from 1.0 to 1000 ng/mL. The mean intrarun accuracy was 94.8 to 113% (precision, ≤6.2% coefficient of variation [CV]), and the mean interrun accuracy was 94.4 to 103.0% (precision, ≤8.6% CV). […] Statistical analyses were performed using SAS software version 9.3 (SAS Institute Inc., Cary, NC, USA). […] The least-squares geometric mean (GM) and corresponding 95% CIs obtained from the models were exponentiated to provide estimates for the population GMs and CIs on the original scales.
# [4] = Safety and tolerability in phase 1 studies; type: in vivo, human
# Experimental: The safety and tolerability of MK-8507 were assessed by clinical evaluation, including vital signs, 12-lead electrocardiograms, laboratory safety tests, and clinical monitoring of AEs.
# [5] = po, 2 mg, single oral dose 2 mg, suspension
# [6] = po, 10 mg, single oral dose 10 mg, suspension
# [7] = po, 30 mg, single oral dose 30 mg, suspension
# [8] = po, 100 mg, single oral dose 100 mg, suspension
# [9] = po, 200 mg, single oral dose 200 mg, suspension
# [10] = po, 400 mg, single oral dose 400 mg, suspension
# [11] = po, 400 mg, single oral dose 400 mg, tablet
# [12] = po, 800 mg, single oral dose 800 mg, tablet
# [13] = po, 1200 mg, single oral dose 1,200 mg, tablet
# [14] = po, 30 mg, single oral dose 30 mg, suspension, fasted
# [15] = po, 400 mg, single oral dose 400 mg, suspension, fasted
smiles,measurement,setting,value
N#Cc1cc(Cl)cc(Oc2c(C(F)(F)F)ncn(Cc3cc(C(F)(F)F)c(=O)[nH]n3)c2=O)c1 [MK-8507],Tmax,"[1]; oral, tablet, range across doses, read-out: median Tmax",4 to 7 h
same,AUC(0-inf),[1]; [5],3.82 µM·h
same,AUC(0-t),[1]; [5],2.94 µM·h
same,half-life,[1]; [5],82.9 h
same,concentration at 168 h,[1]; [5],10 nM
same,Tmax,"[1]; po, 2 mg, single oral dose 2 mg, suspension, n=6, read-out: Tmax (median [min, max])",2 h
same,AUC(0-t),[1]; [6],11.9 µM·h
same,half-life,[1]; [6],82 h
same,concentration at 168 h,[1]; [6],30 nM
same,Tmax,"[1]; po, 10 mg, single oral dose 10 mg, suspension, n=6, read-out: Tmax (median [min, max])",2 h
same,AUC(0-inf),[1]; [7],52 µM·h
same,half-life,[1]; [7],77.7 h
same,Cmax,[1]; [7],790 nM
same,AUC(0-inf),[1]; [8],175 µM·h
same,AUC(0-t),[1]; [8],139 µM·h
same,half-life,[1]; [8],75.9 h
same,concentration at 168 h,[1]; [8],300 nM
same,Cmax,[1]; [8],2580 nM
same,AUC(0-inf),[1]; [9],374 µM·h
same,half-life,[1]; [9],83.5 h
same,concentration at 168 h,[1]; [9],680 nM
same,Cmax,[1]; [9],5400 nM
same,Tmax,"[1]; po, 200 mg, single oral dose 200 mg, suspension, n=6, read-out: Tmax (median [min, max])",2.02 h
same,AUC(0-inf),[1]; [10],770 µM·h
same,AUC(0-t),[1]; [10],619 µM·h
same,half-life,[1]; [10],69.1 h
same,Tmax,"[1]; po, 400 mg, single oral dose 400 mg, suspension, n=6, read-out: Tmax (median [min, max])",4 h
same,AUC(0-inf),[1]; [11],710 µM·h
same,AUC(0-t),[1]; [11],606 µM·h
same,half-life,[1]; [11],58.3 h
same,concentration at 168 h,[1]; [11],1280 nM
same,Cmax,[1]; [11],9090 nM
same,Tmax,"[1]; po, 400 mg, single oral dose 400 mg, tablet, n=6, read-out: Tmax (median [min, max])",7 h
same,AUC(0-inf),[1]; [12],1230 µM·h
same,AUC(0-t),[1]; [12],989 µM·h
same,half-life,[1]; [12],70.9 h
same,concentration at 168 h,[1]; [12],2100 nM
same,Cmax,[1]; [12],15400 nM
same,Tmax,"[1]; po, 800 mg, single oral dose 800 mg, tablet, n=6, read-out: Tmax (median [min, max])",4 h
same,AUC(0-inf),[1]; [13],1920 µM·h
same,AUC(0-t),[1]; [13],1570 µM·h
same,half-life,[1]; [13],68.7 h
same,concentration at 168 h,[1]; [13],3590 nM
same,Cmax,[1]; [13],23600 nM
same,Tmax,"[1]; po, 1200 mg, single oral dose 1,200 mg, tablet, n=6, read-out: Tmax (median [min, max])",5 h
same,in vitro activity against common NNRTI resistance-associated variants,[2],demonstrated in vitro activity
same,half-life,"[3]; oral, overall, discussion, read-out: terminal t½ (converted)",~70 h
same,half-life,"[3]; oral, single doses 2 to 1,200 mg, range across doses, read-out: mean terminal half-life (t1/2)",58 to 84 h
same,half-life,"[3]; oral, some participants, 336 h of PK sampling, read-out: t1/2 in some participants",> 100 h
same,Tmax,"[3]; oral, suspension, fasted, range across doses, read-out: median Tmax",2 to 4 h
same,Cmax,"[3]; po, 2 mg, single oral dose 2 mg, suspension, fasted",50 nM
same,AUC(0-inf),"[3]; po, 10 mg, single oral dose 10 mg, suspension, fasted, n=6, read-out: AUC0-∞ (geometric mean [95% CI])",15.2 µM·h
same,Cmax,"[3]; po, 10 mg, single oral dose 10 mg, suspension, fasted",220 nM
same,AUC(0-t),[3]; [14],39.7 µM·h
same,concentration at 168 h,[3]; [14],100 nM
same,Tmax,"[3]; po, 30 mg, single oral dose 30 mg, suspension, fasted, n=6, read-out: Tmax (median [min, max])",2 h
same,Tmax,"[3]; po, 100 mg, single oral dose 100 mg, suspension, fasted, n=6, read-out: Tmax (median [min, max])",2.04 h
same,AUC(0-t),"[3]; po, 200 mg, single oral dose 200 mg, suspension, fasted",287 µM·h
same,concentration at 168 h,[3]; [15],1300 nM
same,Cmax,[3]; [15],11500 nM
same,Tmax,"[3]; po, oral doses across both studies, suspension or tablet, read-out: time to maximum concentration (Tmax)",2 to 7 h
same,"changes in clinical laboratory assessments, vital signs, electrocardiograms",[4]; both studies,no clinically meaningful changes; also recorded: No clinically meaningful relationships were observed
same,discontinuation due to an adverse experience,[4]; both studies,no participants discontinued
same,seriousness and intensity of adverse events,[4]; both studies,nonserious and mild in intensity
same,tolerability,[4]; single and multiple QW doses,generally well tolerated
same,participants with cough,[4]; study 1,3
same,participants with headache,[4]; study 1,4
same,participants with myalgia,[4]; study 1,2
same,participants with rhinorrhea,[4]; study 1,2
same,AEs considered related to MK-8507,"[4]; study 1, single dose",none
same,total nonserious AEs,"[4]; study 1, single oral dose of MK-8507",38
same,AEs considered related to MK-8507,"[4]; study 2, multiple doses",none
same,total nonserious AEs,"[4]; study 2, multiple doses of MK-8507",13
same,AEs considered related to MK-8507,"[4]; study 2, single doses (decreased appetite)",One
same,total nonserious AEs,"[4]; study 2, single doses of MK-8507",10
